Experiment: caffeine effect (gPD) parameters of the alertness model for PVT performance
Type: in vivo, human
Details: beginning model parameter value (standard error)
Description: In at least one embodiment, the model is as follows: Pc(t)=(S(t)+κC(t))*gPD(t,c) (1) where C and S denote the circadian and homeostatic processes of the two-process model at time t, respectively, and κ represents the circadian amplitude.
M0, k0, z, and ka denote an amplitude slope, a basal elimination rate, a decay constant, and an absorption rate, respectively.

Compound: Cn1c(=O)c2c(ncn2C)n(C)c1=O [caffeine]
- M0 (amplitude slope) (PVT lapse statistic): 9.86 (1.80) g^−1
- Z (decay constant) (PVT lapse statistic): 1.63 (1.61) g^−1
- k0 (basal elimination rate) (PVT lapse statistic): 0.49 (0.17) h^−1
- M0 (amplitude slope) (PVT mean RT statistic): 3.59 (0.66) g^−1
- Z (decay constant) (PVT mean RT statistic): 1.63 (1.61) g^−1
- k0 (basal elimination rate) (PVT mean RT statistic): 0.49 (0.17) h^−1
- ka (capsule) (absorption rate) (PVT lapse statistic): 2.06 (0.36) h^−1
- ka (capsule) (absorption rate) (PVT mean RT statistic): 2.06 (0.36) h^−1

Reference: patent US11883194B2, “Method and system for measuring, predicting, and optimizing human cognitive performance” (priority 2015, dated 2024)
